Patent US7803408B2, “Method of treating endothelial injury” (East Carolina University, priority 1996, dated 2010)
Like-named read-outs stand apart in the source and are kept apart here.

How the values were obtained:
[1] = test system: Human umbilical vein endothelial cells (HUVECs); type: cell-based
Procedure: (§1) Cell Culture. Human umbilical vein endothelial cells (HUVECs) were obtained from Caesarian section derived cords. HUVECs were cultured by standard methodology in 25 cm^2 T-flasks (Corning Inc., Corning, N.Y.) coated with 0.5% porcine skin gelatin (Sigma Chemical Co., St. Louis, Mo.). Medium 199 (Life Technologies, Gaithersburg, Md.), supplemented with 20% defined fetal bovine serum (FBS) (Hyclone, Logan, Utah), 16 U/ml heparin (Sigma), 50 μg/ml bovine hypothalamus derived endothelial mitogen (Biomedical Technologies, Stoughton, Mass.), 100 U/ml penicillin and 100 μg/ml streptomycin was used for the growth of HUVECs. Endothelial cells were characterized by homogenous and typical cobblestone morphology, von Willebrand factor antigen positively, and the presence of Weibel-Palade bodies, as are known in the art.
(§2) Protection/Inhibition Assay. The number of metabolically active cells after exposure of endothelial cell cultures to test agents was assessed using a calorimetric method. This assay utilizes solutions of a tetrazolium compound [3-(4,5-dimethylthiazol-2-yl)-5-(3-carboxymethoxyphenyl)-2-(4 Sulfophenyl)-2H-tetrazolium] (MTS) and an electron coupling reagent, phenazine methosulfate (PMS; available from Promega Corp., Madison, Wis.). See Denizot and Lang, J. Immunol. Methods 89:271 (1986); Promega Corporation Technical Bulletins 112, 152 and 169). […] The amount of formazan is measured at 490 nm absorbance and is directly proportional to the numbers of living cells in culture.
(§3) Endothelial cells grown in the complete (supplemented) M199 medium were harvested in the log phase. […] The number and viability of the cells was determined using a hemocytometer and the trypan blue staining, respectively. […] The absorbance of each well at 490 nm was recorded using an ELISA plate reader. The LD50 and the effect of the various treatments on cell viability and chemosensitivity were determined by plotting the corrected absorbance at 490 nm versus the concentration of the additive (EPO, chemotherapeutic agent, or combinations thereof). […]

[2] = test system: Human umbilical vein endothelial cells (HUVECs); assay: Protection/inhibition assay, EPO added two hours after cisplatin (MTS/PMS); type: cell-based
Procedure: as §1
as §2, with “Wis.).” for “Wis.). See Denizot and Lang, J. Immunol. Methods 89:271 (1986); Promega Corporation Technical Bulletins 112, 152 and 169).”
as §3
Endothelial cell cultures were prepared as described in Example 1. […] Endothelial cell viability was assessed using the MTS/PMS colorimetric assay described in Example 1.

[3] = test system: Human umbilical vein endothelial cells (HUVECs); type: cell-based; remark: listed apart in the source
Procedure: as §1, with “Endothelial cells were characterized by homogenous and typical cobblestone morphology, von Willebrand factor antigen positively, and the presence of Weibel-Palade bodies, as are known in the art.” left out
Protection/Inhibition Assay. The number of metabolically active cells after exposure of endothelial cell cultures to test agents was assessed using a calorimetric method. […] The amount of formazan is measured at 490 nm absorbance and is directly proportional to the numbers of living cells in culture.
Endothelial cells grown in the complete (supplemented) M199 medium were harvested in the log phase. […] The number and viability of the cells was determined using a hemocytometer and the trypan blue staining, respectively. […] The absorbance of each well at 490 nm was recorded using an ELISA plate reader. […]
Endothelial cell cultures were prepared as described in Example 1. […] Endothelial cell viability was assessed using the MTS/PMS calorimetric assay described in Example 1.

[4] = doses of up to 1,500 Units/kg for three to four weeks; cited from earlier work
[5] = test system: human umbilical vein endothelial cells; details: cited from earlier work
[6] = test system: bovine capillary endothelial cells; details: cited from earlier work

Substance: erythropoietin [EPO]
- effect on endothelial cell cultures vs cisplatin alone ([1]; 0.15 to 1.25 U/ml EPO simultaneously with 1 μg/ml cisplatin): protected from the damaging effects of cisplatin
- number of viable cells greater than in control cultures treated with cisplatin only ([1]; 0.3 U/ml EPO simultaneously with 1 μg/ml cisplatin): approximately 30%
- endothelial cell growth vs cisplatin alone ([1]; 5 to 20 U/ml EPO simultaneously with 1 μg/ml cisplatin): inhibited
- effect on endothelial cell cultures vs cisplatin alone ([2]; 0.15 to 5 U/ml EPO two hours following 1 μg/ml cisplatin): protected from the damaging effects of cisplatin
- number of viable cells greater than that of controls ([2]; 1.25 U/ml EPO two hours after 1 μg/ml cisplatin): 34%
- cell viability vs controls (cisplatin only) ([2]; 10 to 20 U/ml EPO two hours after 1 μg/ml cisplatin): reduced over that seen in controls
- reduction of cell growth compared to controls ([3]; 2.5 U/ml EPO two hours prior to cisplatin): 48%
- reduction of cell growth compared to controls ([3]; 5 U/ml EPO two hours prior to cisplatin): 58%
- toxic effects due to EPO itself [4]: without toxic effects
- mitogenic and chemoattractant (migratory) effect [5]: exerts a mitogenic and chemoattractant (migratory) effect
- mitogenic and chemoattractant (migratory) effect [6]: exerts a mitogenic and chemoattractant (migratory) effect
